Calls of active or inactive are those of the source. How the calls were made is not given here.
System: CCRIS mutagenicity, Ames/micronucleus/aberration tests
Assay: CCRIS mutagenicity studies
[1] = Test System: AMES SALMONELLA TYPHIMURIUM, Strain/Indicator: TA97A, Metabolic Activation: NONE, Method: STANDARD PLATE
[2] = Test System: AMES SALMONELLA TYPHIMURIUM, Strain/Indicator: TA98, Metabolic Activation: NONE, Method: STANDARD PLATE
[3] = Test System: AMES SALMONELLA TYPHIMURIUM, Strain/Indicator: TA100, Metabolic Activation: NONE, Method: STANDARD PLATE

## O=[N+]([O-])O
Test System: AMES SALMONELLA TYPHIMURIUM, Strain/Indicator: TA97, Metabolic Activation: NONE, Method: PREINCUBATION
  mutagenic call: inactive; negative
Test System: AMES SALMONELLA TYPHIMURIUM, Strain/Indicator: TA97, Metabolic Activation: S-9, Method: PREINCUBATION
  mutagenic call: inactive; negative
Test System: AMES SALMONELLA TYPHIMURIUM, Strain/Indicator: TA97A, Metabolic Activation: NONE, Method: PREINCUBATION
  mutagenic call: inactive; negative
[1]
  mutagenic call: inactive; negative
Test System: AMES SALMONELLA TYPHIMURIUM, Strain/Indicator: TA97A, Metabolic Activation: RAT, LIVER, S-9, PHENOBARBITAL AND BETA-NAPHTHOFLAVONE, Method: PREINCUBATION
  mutagenic call: inactive; negative
Test System: AMES SALMONELLA TYPHIMURIUM, Strain/Indicator: TA97A, Metabolic Activation: RAT, LIVER, S-9, PHENOBARBITAL AND BETA-NAPHTHOFLAVONE, Method: STANDARD PLATE
  mutagenic call: inactive; negative
[2]
  mutagenic call: inactive; negative
Test System: AMES SALMONELLA TYPHIMURIUM, Strain/Indicator: TA98, Metabolic Activation: RAT, LIVER, S-9, AROCLOR 1254, Method: STANDARD PLATE
  mutagenic call: inactive; negative
Test System: AMES SALMONELLA TYPHIMURIUM, Strain/Indicator: TA98, Metabolic Activation: RAT, LIVER, S-9, PHENOBARBITAL AND BETA-NAPHTHOFLAVONE, Method: PREINCUBATION
  mutagenic call: inactive; negative
Test System: AMES SALMONELLA TYPHIMURIUM, Strain/Indicator: TA98, Metabolic Activation: RAT, LIVER, S-9, PHENOBARBITAL AND BETA-NAPHTHOFLAVONE, Method: STANDARD PLATE
  mutagenic call: inactive; negative
[3]
  mutagenic call: inactive; negative
Test System: AMES SALMONELLA TYPHIMURIUM, Strain/Indicator: TA100, Metabolic Activation: RAT, LIVER, S-9, AROCLOR 1254, Method: STANDARD PLATE
  mutagenic call: inactive; negative
Test System: AMES SALMONELLA TYPHIMURIUM, Strain/Indicator: TA100, Metabolic Activation: RAT, LIVER, S-9, PHENOBARBITAL AND BETA-NAPHTHOFLAVONE, Method: PREINCUBATION
  mutagenic call: inactive; negative
Test System: AMES SALMONELLA TYPHIMURIUM, Strain/Indicator: TA100, Metabolic Activation: RAT, LIVER, S-9, PHENOBARBITAL AND BETA-NAPHTHOFLAVONE, Method: STANDARD PLATE
  mutagenic call: inactive; negative
Test System: AMES SALMONELLA TYPHIMURIUM, Strain/Indicator: TA102, Metabolic Activation: NONE, Method: PREINCUBATION
  mutagenic call: inactive; negative
Test System: AMES SALMONELLA TYPHIMURIUM, Strain/Indicator: TA102, Metabolic Activation: S-9, Method: PREINCUBATION
  mutagenic call: inactive; negative
Test System: AMES SALMONELLA TYPHIMURIUM, Strain/Indicator: TA102C, Metabolic Activation: NONE, Method: PREINCUBATION
  mutagenic call: inactive; negative
Test System: AMES SALMONELLA TYPHIMURIUM, Strain/Indicator: TA102C, Metabolic Activation: NONE, Method: STANDARD PLATE
  mutagenic call: inactive; negative
Test System: AMES SALMONELLA TYPHIMURIUM, Strain/Indicator: TA102C, Metabolic Activation: RAT, LIVER, S-9, PHENOBARBITAL AND BETA-NAPHTHOFLAVONE, Method: PREINCUBATION
  mutagenic call: inactive; negative
Test System: AMES SALMONELLA TYPHIMURIUM, Strain/Indicator: TA102C, Metabolic Activation: RAT, LIVER, S-9, PHENOBARBITAL AND BETA-NAPHTHOFLAVONE, Method: STANDARD PLATE
  mutagenic call: inactive; negative
Test System: AMES SALMONELLA TYPHIMURIUM, Strain/Indicator: TA1535, Metabolic Activation: NONE, Method: PREINCUBATION
  mutagenic call: inactive; negative
Test System: AMES SALMONELLA TYPHIMURIUM, Strain/Indicator: TA1535, Metabolic Activation: NONE, Method: STANDARD PLATE
  mutagenic call: inactive; negative
Test System: AMES SALMONELLA TYPHIMURIUM, Strain/Indicator: TA1535, Metabolic Activation: RAT, LIVER, S-9, AROCLOR 1254, Method: STANDARD PLATE
  mutagenic call: inactive; negative
Test System: AMES SALMONELLA TYPHIMURIUM, Strain/Indicator: TA1535, Metabolic Activation: RAT, LIVER, S-9, PHENOBARBITAL AND BETA-NAPHTHOFLAVONE, Method: PREINCUBATION
  mutagenic call: inactive; negative
Test System: AMES SALMONELLA TYPHIMURIUM, Strain/Indicator: TA1535, Metabolic Activation: RAT, LIVER, S-9, PHENOBARBITAL AND BETA-NAPHTHOFLAVONE, Method: STANDARD PLATE
  mutagenic call: inactive; negative
Test System: AMES SALMONELLA TYPHIMURIUM, Strain/Indicator: TA1537, Metabolic Activation: NONE, Method: PREINCUBATION
  mutagenic call: inactive; negative
Test System: AMES SALMONELLA TYPHIMURIUM, Strain/Indicator: TA1537, Metabolic Activation: NONE, Method: STANDARD PLATE
  mutagenic call: inactive; negative
Test System: AMES SALMONELLA TYPHIMURIUM, Strain/Indicator: TA1537, Metabolic Activation: RAT, LIVER, S-9, AROCLOR 1254, Method: STANDARD PLATE
  mutagenic call: inactive; negative
Test System: AMES SALMONELLA TYPHIMURIUM, Strain/Indicator: TA1537, Metabolic Activation: RAT, LIVER, S-9, PHENOBARBITAL AND BETA-NAPHTHOFLAVONE, Method: PREINCUBATION
  mutagenic call: inactive; negative
Test System: AMES SALMONELLA TYPHIMURIUM, Strain/Indicator: TA1537, Metabolic Activation: RAT, LIVER, S-9, PHENOBARBITAL AND BETA-NAPHTHOFLAVONE, Method: STANDARD PLATE
  mutagenic call: inactive; negative
Test System: AMES SALMONELLA TYPHIMURIUM, Strain/Indicator: TA1538, Metabolic Activation: NONE, Method: PREINCUBATION
  mutagenic call: inactive; negative
Test System: AMES SALMONELLA TYPHIMURIUM, Strain/Indicator: TA1538, Metabolic Activation: NONE, Method: STANDARD PLATE
  mutagenic call: inactive; negative
Test System: AMES SALMONELLA TYPHIMURIUM, Strain/Indicator: TA1538, Metabolic Activation: RAT, LIVER, S-9, AROCLOR 1254, Method: STANDARD PLATE
  mutagenic call: inactive; negative
Test System: AMES SALMONELLA TYPHIMURIUM, Strain/Indicator: TA1538, Metabolic Activation: RAT, LIVER, S-9, PHENOBARBITAL AND BETA-NAPHTHOFLAVONE, Method: PREINCUBATION
  mutagenic call: inactive; negative
Test System: AMES SALMONELLA TYPHIMURIUM, Strain/Indicator: TA1538, Metabolic Activation: RAT, LIVER, S-9, PHENOBARBITAL AND BETA-NAPHTHOFLAVONE, Method: STANDARD PLATE
  mutagenic call: inactive; negative
Test System: E. COLI, Strain/Indicator: WP2, Metabolic Activation: NONE, Method: STANDARD PLATE
  mutagenic call: inactive; negative
Test System: E. COLI, Strain/Indicator: WP2, Metabolic Activation: RAT, LIVER, S-9, AROCLOR 1254, Method: STANDARD PLATE
  mutagenic call: inactive; negative

## Cc1c2c(cc3c1ccc1ccccc13)C=C[C@@H](O)[C@@H]2O
Test System: CHINESE HAMSTER V-79, Strain/Indicator: V-79/8-AZAGUANINE, Metabolic Activation: NONE, Method: STANDARD PLATE
  mutagenic call: active; positive

## Cc1cc(C)c(C)cc1C
[1]
  mutagenic call: inactive; negative
Test System: AMES SALMONELLA TYPHIMURIUM, Strain/Indicator: TA97A, Metabolic Activation: RAT LIVER S-9, AROCLOR 1254, Method: STANDARD PLATE
  mutagenic call: inactive; negative
[2]
  mutagenic call: inactive; negative
Test System: AMES SALMONELLA TYPHIMURIUM, Strain/Indicator: TA98, Metabolic Activation: RAT LIVER S-9, AROCLOR 1254, Method: STANDARD PLATE
  mutagenic call: inactive; negative
[3]
  mutagenic call: inactive; negative
Test System: AMES SALMONELLA TYPHIMURIUM, Strain/Indicator: TA100, Metabolic Activation: RAT LIVER S-9, AROCLOR 1254, Method: STANDARD PLATE
  mutagenic call: inactive; negative
Test System: AMES SALMONELLA TYPHIMURIUM, Strain/Indicator: TA102, Metabolic Activation: NONE, Method: STANDARD PLATE
  mutagenic call: inactive; negative
Test System: AMES SALMONELLA TYPHIMURIUM, Strain/Indicator: TA102, Metabolic Activation: RAT LIVER S-9, AROCLOR 1254, Method: STANDARD PLATE
  mutagenic call: inactive; negative

## O=[N+]([O-])c1ccc2c(c1)C(O)c1ccccc1-2 (stereo not drawn)
Test System: AMES SALMONELLA TYPHIMURIUM, Strain/Indicator: TA98, Metabolic Activation: NONE, Method: PREINCUBATION
  mutagenic call: active; positive
Test System: AMES SALMONELLA TYPHIMURIUM, Strain/Indicator: TA98, Metabolic Activation: S-9, Method: PREINCUBATION
  mutagenic call: active; positive
